The values that follow come from US20250275537A1, “CARBOXAMIDE APYRASE INHIBITORS” (Texas Crop Science, Inc., priority 2024, published 2025).

The test system of test [1] is strain of Zymoseptoria tritici with a reduced susceptibility to strobilurin fungicides. Description: In vitro assessment of combination activity with fungicides (Method 2), Z. tritici strobilurin-reduced-susceptibility strain. In kind it is cell-based. As to conditions: any fungicide (azoxystrobin, fluxapyroxad, desthio prothioconazole). As for the experimental part: (§1) Selected compounds are assessed in combination with fungicides against a range of commercially important plant pathogenic fungi.
(§2) The test is conducted as follows. A fungicide is applied to a fungal plant pathogen at a rate slightly below that at which it gave any control, in combination with a suitable dose of the test compound. The test compound is recorded as active if control of the pathogen is observed.
(§3) In more detail, the test is conducted as follows. For each combination of fungicide, pathogen and test compound, the following wells are used. Well 1 contains a fungal pathogen growing on agar, and a fungicide at a rate just below that at which it gives any control of the pathogen. Well 2 is the same as Well 1, except that the test compound is also added at Rate 1. Well 3 is the same as Well 2, except that the test compound is added at Rate 2, where Rate 2 was higher than Rate 1. Finally, as a benchmark. Well 4 is the same as Well 1, except that it contains the fungicide at a higher rate, at which it gives partial control of the pathogen. Each of the Wells 1 to 4 are run in duplicate, giving a total of 8 wells for each combination of fungicide, pathogen and test compound. For each well, after a suitable period of incubation, a visual assessment of the % control of the pathogen by the fungicide is made. […]

The test system of test [2] is strain of Zymoseptoria tritici with a reduced susceptibility to SDHI fungicides. Description: In vitro assessment of combination activity with fungicides (Method 2), Z. tritici SDHI-reduced-susceptibility strain. Format: cell-based. As to conditions: any fungicide (azoxystrobin, fluxapyroxad, desthio prothioconazole). As for the experimental part:
as §1, §2, §3

Test [3] relates to Microdochium nivale. Description: In vitro assessment of combination activity with fungicides (Method 2), Microdochium nivale. In kind it is cell-based. Conditions: in combination with azoxystrobin; visual % control on agar. The protocol: as §1, §2, §3
The test system of test [4] is apyrase. Description: Apyrase inhibition assay (Method 1). In kind it is biochemical. As to conditions: inhibitor conc at 1 mM stock, 10 μl per well; 1 hr room temperature; rounded average of at least two assay results. As for the experimental part: Apyrase inhibitors useful as enhancers of pesticidal activity are assessed using an in vitro assay. The method of Windsor, Bio Techniques 33:1024-1030 (November 2002) was used as follows
96 well plates were used for the assay: (Greiner bio-one: REF-655901-96 well, PS, F-bottom, Clear, Non-binding)
• Reaction Buffer: 60 mM Hepes, 3 mM MgCl2, 3 mM CaCl2 and 3 mM ATP (pH 6.5) • Development Buffer A: 2% aqueous ammonium molybdate • Development Buffer B: 11% ascorbic acid in 37.5% TCA in water • Stop buffer C: 2% trisodium citrate in 2% acetic acid solution in water • Add 100 μl of reaction buffer to each well. • Add 10 μl of DMSO (control) or inhibitor/compound or compounds such as N1915 or orthovanadate to each well. (use inhibitor conc at 1 mM; orthovanadate at 2 mM and N1915 at 1 mM) • Add 10 μl of apyrase (concentration based on optimization —Dilute 1 U/μl enzyme to different concentrations such as 0.1U, 0.05U, 0.0025, 0.001U, 0.0005U—to find a good range) • Incubate plate at room temperature for 1 hr • Mix development buffer A and B in the ratio of 1:1.5 (just before use). • Add 50 ul of A:B mix in each well (incubate for 2 mins) • Add 50 ul of C in each well • Measure/Read Absorbance of plate @630 nm
Inhibitory data for the apyrase assay described above are provided for selected compounds in Table 3. In Table 3, D indicates inhibition of <10%.
With reference to Table 3, percent inhibition of apyrase is reported as the rounded average of at least two assay results.

Test [5] concerns Brown Rust (Puccinia recondita) on wheat. Description: Greenhouse crop test: Brown Rust on wheat in combination with commercial fungicides (Method 3). In kind it is in vivo. As to conditions: evaluated at fourteen days. As for the experimental part: In this method, exemplary compounds were evaluated for their ability to control Brown Rust (Puccinia recondita) on wheat, in a controlled greenhouse environment in combination with one of four fungicides, Amistar, Imtrex, Proline or Balaya. In these studies, JB Diego wheat plants were used. Seeds were sown in 9 cm diameter pots to a depth of 1 to 2 cm using Petersfield potting compost (75% medium grade peat, 12% screened sterilized loam, 3% medium grade vermiculite, 10% grit (5 mm screened, lime free), 1.5 kg PG mix per m3, lime to pH5.5-6.0 and wetting agent (Vitax Ultrawet 200 ml per m3) and germinated/grown at 23 C under a 16 h day/8 h night light regime. Plants were treated two to three weeks after sowing when they were at the BBCH 11 growth stage (first pair of true leaves (unifoliate) unfolded). Plants were inoculated with the Puccinia triticina (Brown rust on wheat plants) 24 hours after treatment. A track sprayer was used to treat the plants with the mixture of commercial fungicide and test compound using a water volume of 200 L/ha. […] Each plant was evaluated at fourteen days (once the disease symptoms were fully expressed) for % control of the disease. […] Also, each commercial fungicide was tested on its own as a part of each treatment, this being benchmark against which the experimental compounds were evaluated. […]

Test [6] relates to Amaranthus retroflexus (pigweed). The test is described as follows: Enhancement of herbicide activity: pre-emergence Amaranthus kill with metribuzin (Method 4). In kind it is in vivo. Conditions: enhancer at 100 g/ha. From the text: Small amounts of acetone were used to aid solubility. The pots were watered immediately after sowing and treatment and then allowed to stand in a glasshouse. Assessment of kill was made seven and fourteen days after treatment. The test included four replicates for each treatment and the control.

Turning to `O=C(Nc1cccc([N+](=O)[O-])c1)c1cccc(S(=O)(=O)Nc2ccc(Br)cc2)c1` [Roux Compound 13], the entries for the “enhancement of fungicide activity (combination activity)” value in test [1], in test [2] and in test [3] were “failing to enhance activity of any fungicide”, “failing to enhance activity of any fungicide” and “enhancing the activity of azoxystrobin”, respectively.

In the case of `O=C(Nc1ccccc1)c1ccc(C(=O)Nc2ccccc2)cc1` [Compound I-3, N^1,N^4-diphenylterephthalamide], the “% Inhibition of Apyrase” value in test [4] is “A (A indicates inhibition above 30%)”. Besides, the “additional Brown Rust control in combination with Balaya over Balaya alone” value in test [5] (Balaya 0.25 L/ha) is “measurable additional Brown Rust control”.

`O=C(Nc1ccccc1Cl)c1ccccc1C(=O)Nc1ccccc1Cl` [Compound I-14, N^1,N^2-bis(2-chloropheny)phthalamide]: the “% Inhibition of Apyrase” value in test [4] was “A (A indicates inhibition above 30%)”. Further, the “Pre-Emergence Amaranthus Kill Percentage” value in test [6] (Assessed 7 DAT, metribuzin rate 50 g/ha) is 21.3%; in test [6] (Assessed 7 DAT, metribuzin rate 100 g/ha), 93.9%; in test [6] (Assessed 7 DAT, metribuzin rate 200 g/ha), 98.0%; in test [6] (Assessed 14 DAT, metribuzin rate 50 g/ha), 32.7%; in test [6] (Assessed 14 DAT, metribuzin rate 100 g/ha), 94.0%; in test [6] (Assessed 14 DAT, metribuzin rate 200 g/ha) it was 100.0%. The “enhancement of metribuzin herbicidal activity” value in test [6] (at seven and fourteen days) is “significant enhancement”.

As for `O=C(c1ccc(C(=O)N2CCc3ccccc32)cc1)N1CCc2ccccc21` [Compound I-66, 1,4-phenylenebis(indolin-1-ylmethanone)], the “% Inhibition of Apyrase” value in test [4] is on record as “A (A indicates inhibition above 30%)”. The “additional Brown Rust disease control in combination with Amistar over Amistar alone” value in test [5] (Amistar 0.04 L/ha) is reported as “greater than 20%”.
